Measured values reported in patent US20150352197A1, “PEPTIDE” (Apitope International NV, priority 2013, published 2015).
Ends that are not written are not given here.

How the values were obtained:
HLA-DRB1*1501 = target: T1, HLA-DRB1*1501 (Homo sapiens, UniProt P01903+P01911); experiment: Antigen processing independent presentation system: fixed MGAR cells plus peptide-specific T cell hybridomas, IL-2 ELISA; assay type: cell-based
T1 construct: human cell line expressing HLA-DRB1*1501; host or cells: MGAR cells (human cell line), fixed with paraformaldehyde or fresh
Experimental: 100 μl of hybridoma cells were cultured with 5×10^4 MGAR cells (human cell line expressing HLA-DRB1*1501, Health Protection Agency Culture Collections, Salisbury, UK) in wells of a flat bottom 96-well plate. 50 μl complete RPMI-10% FCS containing a long peptide at 10 μg/ml or the same volume of DMSO (diluent of the peptide) was added to the wells. After 48 h, 120 μl of supernatant was removed and a mouse IL-2 ELISA (Enzyme-linked immunosorbent assay) performed. Clones that produce IL-2 recognise the antigen used. The remaining supernatants were frozen at −20° C.
96 well plates (Immunosorb 96 well, Nunc, Roskilde, Denmark) were coated with 50 μl/well purified rat anti-mouse IL-2 capture Ab (BD Biosciences, Oxford, UK), diluted 1:250 in carbonate buffer (3.56 g Na2CO3 (Sigma-Aldrich, Saint Louis, Mass.), 8.4 g NaHCO3 (Fisher Scientific, Loughborough, UK), 1 L elgastat water; pH 9.5) and incubated overnight at 4° C. After 2 washes in PBS-Tween (1 L 10× PBS, 9 L distilled water, 0.5 ml Tween (Sigma-Aldrich, Saint Louis, Mass.)), […] of PBS-10% FCS were added and incubated at RT for 1 hour. After 3 washes in PBS-Tween, 50 μl of supernatant or IL-2 standard (BD Biosciences, Oxford, UK) dilutions (in PBS-10% FCS) were added to the wells and incubated 2 h at RT. After 4 washes in PBS-Tween (Sigma-Aldrich, Saint Louis, Mass.), 50 μl/well of biotin rat anti-mouse IL2 (BD Biosciences, Oxford, UK) diluted 1:1000 in 10% FCS/PBS was added and incubated for 1 h at RT. After 4 washes, 50 μl/well extravidin peroxidase (Sigma-Aldrich, Saint Louis, Mass.) diluted 1:1000 in PBS was added and incubated 30 min at RT. After 4 washes, […] of substrate solution* was added and incubated at RT until a clear colour change was seen. The reaction was stopped using 50 μl/well 2M H2SO4 (BDH, Poole, UK) and plates were read at 450 nm (550 nm ref) with an ELISA reader (SpectraMax Pro, Molecular Device, Sunnyvale, Calif.). *Substrate solution: 10 ml phosphate-citrate buffer 0.1M (5.14 ml 0.2M Na2HPO4 (BDH, Poole, UK), 4.86 ml 0.1M citrate (Sigma), 10 ml elgastat water), 0.1 ml of TMB (defrost 3,3′,5,5′-Tetramethylbenzidine at 10 mg/ml in DMSO, Sigma-Aldrich, Saint Louis, Mass.), 6 μl of hydrogen peroxide (Sigma-Aldrich, Saint Louis, Mass.).
The specific clones were then tested for their responses to the 15-mer peptides (POP-1 to POP-12) with fixed or not fixed MGAR cells. For this purpose, 1×10^5 cells from the individual clones are cultured with 5×10^4 fixed or fresh MGAR cells in a 96-well flat bottom plate. […] After 48 h in culture, 120 μl of supernatant was harvested and analysed by ELISA to assess IL-2 production.

[1] = test system: HLA-DRB1*1501 transgenic mice; experiment: EAE induction by priming with long peptide; assay type: in vivo; details: long peptides, HLA-DRB1*1501 mice, FIG. 1
Experimental: For each peptide, in silico studies were carried out to predict DR2 (HLA-DRB1*1501) binding capacity, and in vitro (proliferation assay) and in vivo (EAE induction) studies were carried out to investigate response.
HLA-DRB1*1501 transgenic mice were injected with 100 μl containing 100 μg of long peptide in PBS (Lonza, Verviers, Belgium) or PBS alone, and with Complete Freund Adjuvant (CFA; BD Difco, Oxford, UK) with 4 mg/ml Mycobacterium tuberculosis (MTb, BD Difco, Oxford, UK) subcutaneously at the base of the tail. For EAE study, the mice were injected with 200 ng of pertussis toxin at the same time as the priming and 2 days after. The mice were then followed, weight and scored for disease every day.

[2] = test system: splenocytes (SPL) and lymph node cells (LNC); experiment: Ex vivo tolerance assay: apitope pre-treatment, priming with long peptide, then recall proliferation and cytokine production; assay type: in vivo, HLA-DRB1*1501 mice
[3] = test system: splenocytes and lymph node cells; experiment: In vitro proliferation assay for immunogenicity of the long peptides; assay type: cell-based, HLA-DRB1*1501 transgenic mice; details: HLA-DRB1*1501 mice, FIG. 1
[4] = 15-mers spanning HEAL-26, HEAL-26 specific hybridomas from DR2 mice
[5] = LNC (lymph node) of pre-treated mice
[6] = SPL (spleen) of pre-treated mice

Row | identification as apitope (HLA-DRB1*1501; [4]) | Substance | response in the in vivo study (EAE induction) [1] | IL-17 production ([2]; LNC of pre-treated mice) | response in the in vitro study (proliferation assay) [3] | proliferation (3H-thymidine incorporation) [2, 5] | proliferation (3H-thymidine incorporation) [2, 6] | IL-17 production ([2]; SPL of pre-treated mice) | also measured
1 | identified as apitopes | EKLIETYFSKNYQDY [POP-8, 15-mer overlapping peptide spanning HEAL-26] | – | – | – | – | – | – | –
2 | – | GVLPWNAFPGKVCGSNLLSICKTAEFQM-NH2 (cysteine pairing not given here) [GVLP-28, long peptide from a hydrophilic domain of PLP, residues 207-234] | respond | significant inhibition | respond | – | – | – | stimulation index of LNC proliferation ([2]; LNC of pre-treated mice): decrease
3 | – | HEALTGTEKLIETYFSKNYQDYEYLI-NH2 [HEAL-26, long peptide from a hydrophilic domain of PLP, residues 36-61] | respond | decrease | respond | decrease | decrease | decrease | IL-5 production ([2]; pre-treated mice, cell population not specified): increase
4 | identified as apitopes | LTGTEKLIETYFSKN [POP-4, 15-mer overlapping peptide spanning HEAL-26] | – | significant decrease | – | inhibition | inhibition | significant decrease | IFN-γ production ([2]; LNC of pre-treated mice): significant decrease; TNF-α production ([2]; LNC of pre-treated mice): significant decrease; IFN-γ production ([2]; SPL of pre-treated mice): significant decrease; TNF-α production ([2]; SPL of pre-treated mice): significant decrease
5 | identified as apitopes | TEKLIETYFSKNYQD [POP-7, 15-mer overlapping peptide spanning HEAL-26] | – | – | – | – | – | – | –
6 | – | TTCQSIAFPSKTSAS [POP-15, 15-mer overlapping peptide spanning TWTT-28] | – | significant inhibition | – | significant inhibition | no difference | less | GM-CSF production ([2]; LNC of pre-treated mice): significant inhibition; IFN-γ production ([2]; LNC of pre-treated mice): significant inhibition; cytokine production ([2]; LNC of pre-treated mice): inhibit very well; GM-CSF production ([2]; SPL of pre-treated mice): less; IFN-γ production ([2]; SPL of pre-treated mice): less; cytokine production ([2]; SPL of pre-treated mice): inhibit very well
7 | – | TWTTCQSIAFPSKTSASIGSLCADARMY-NH2 (cysteine pairing not given here) [TWTT-28, long peptide from a hydrophilic domain of PLP, residues 179-206] | respond | – | respond | inhibit very well | inhibit very well | – | cytokine production ([2]; LNC of pre-treated mice): inhibit very well; cytokine production ([2]; SPL of pre-treated mice): inhibit very well
8 | – | VLPWNAFPGKVCGSN [POP-22, 15-mer overlapping peptide spanning GVLP-28] | – | significant inhibition | – | – | – | – | identification as apitope (HLA-DRB1*1501; 15-mers spanning GVLP-28, TWTT-28 specific hybridomas from DR2 mice (so in the source)): identified as an apitope; stimulation index of LNC proliferation ([2]; LNC of pre-treated mice): decrease
